Data on four molecules can be found in US8591895B2, “Combinations for the treatment of diseases involving cell proliferation” (Boehringer Ingelheim International GmbH, priority 2004, dated 2013).

Each structure is given as a SMILES string. Read-outs that look alike come from different tables or passages of the source.

Data set [1] is described as follows: Tolerability (body weight) in NCI-H460 tumor-bearing nude mice. As to conditions: 10 animals per group; Docetaxel 15 mg/kg i.v., alone or with Nr. 46 50 mg/kg i.v. The text has this:
(§1) The triangles indicate the treatment days.

In another data set the test system is NCI-H460 tumors. Nature of the data set: NCI-H460 lung model combination study: tumor growth of subcutaneous xenografts in nude mice. The following applies: Docetaxel 15 mg/kg i.v.; for T/C (tumor growth delay): day 17 (end of the controls), Nr. 46 50 mg/kg i.v., once weekly (q7d)x4, alone or combined; for delay of the average time to reach 1000 mm^3 in tumor volume compared to the controls: until day 71 (end of the study), weekly treatment until day 25, Nr. 46 50 mg/kg. The format is in vivo, human.
Text: as §1

The test system of the next data set is BxPC-3 tumours. The data set is described as follows: BxPC-3 pancreas model combination study: tumour growth of subcutaneous xenografts in nude mice. The format is in vivo, human. As to conditions: day 26 (end of the controls); Nr. 46 50 mg/kg i.v., gemcitabine 100 mg/kg i.p., once weekly (q7d)x6, alone or combined. A general note: Xenograft models place foreign cells or tissue in a host animal.

Data set [2] is classed as in vivo. As to conditions: day 39, Nr. 46 30 mg/kg i.v., irinotecan 12.5 mg/kg i.p., once weekly; for body weight gain: controls gained 10.3%.
The conditions of data set [3]: for body weight gain: day 26, Nr. 46 50 mg/kg i.v., gemcitabine 100 mg/kg i.p., once weekly, controls gained 6.2%.
Method: Suboptimal doses of both compounds were used to facilitate the detection of additive, synergistic or antagonistic effects. Design of the Study • Model: Human adenocarcinoma model BxPC-3 grown as subcutaneous xenografts in nude mice. • Treatment groups (10 animals per group): • Controls Vehicle, i.v., once weekly for 4 weeks ((q7d)×4) • Exemplified compound Nr.
Tumor volumes and animal weights were recorded 3 times per week. Evaluation of therapy results was based on the absolute volumes of individual tumors.
Mice were female BomTac:NMRI-nu/nu. […] Gemcitabin infusion concentrate was diluted with 0.9% NaCl and injected intraperitoneally. The administration volume was 10 ml per kg body weight for both compounds. BxPC-3 tumours were established from cultured BxPC-3. Tumour volumes were determined three times a week using a calliper. The weight of mice was determined as an indicator of tolerability on the same days. Plasma samples were taken on the last treatment day.
Another data set has as its system HCT 116 tumors. Nature of the data set: HCT 116 colon cancer model combination study: tumor growth of subcutaneous xenografts in nude mice. The format is in vivo, human. The following applies: Nr. 46 30 mg/kg i.v., irinotecan 12.5 mg/kg i.p.; for T/C (tumor growth delay): day 39 (end of the controls), once weekly (q7d)x10, alone or combined.

As for `CC(=O)O[C@@]12CO[C@@H]1C[C@H](O)[C@@]1(C)C(=O)[C@H](O)C3=C(C)[C@@H](OC(=O)[C@H](O)[C@@H](NC(=O)OC(C)(C)C)c4ccccc4)C[C@@](O)([C@@H](OC(=O)c4ccccc4)[C@H]21)C3(C)C` [Docetaxel], in data set [1], the “mice euthanized due to severe loss of body weight” value is reported as “one mouse had to be euthanized”. Moreover, in the data set with NCI-H460 tumors, the “T/C (tumor growth delay)” value was 42% and the “delay of the average time to reach 1000 mm^3 in tumor volume compared to the controls” value was found to be 10.5 days.
Turning to `CC[C@@H]1C(=O)N(C)c2cnc(Nc3ccc(C(=O)NC4CCN(C)CC4)cc3OC)nc2N1C1CCCC1` [exemplified compound Nr. 46, 4-[[(7R)-8-cyclopentyl-7-ethyl-5,6,7,8-tetrahydro-5-methyl-6-oxo-2-pteridinyl]amino]-3-methoxy-N-(1-methyl-4-piperidinyl)-benzamide], the “T/C (tumour growth delay)” value in the data set with BxPC-3 tumours was 28%. In addition, the body weight gain in data set [2] was determined as 8.6%; in data set [3], 8.2%. For the same molecule, the “T/C (tumor growth delay)” value is 65% in the data set on NCI-H460 tumors and 20% with HCT 116 tumors. For the same molecule, the “delay of the average time to reach 1000 mm^3 in tumor volume compared to the controls” value with NCI-H460 tumors turned out to be 4.0 days. In addition, the “delay of the average time to reach 1000 mm^3 in tumor volume” value in the data set with HCT 116 tumors (day 121 (end of the study), weekly treatment until day 64) came out at 33.7 days.
In the case of `Nc1ccn([C@@H]2O[C@H](CO)[C@@H](O)C2(F)F)c(=O)n1` [gemcitabine, Gemcitabine], in the data set with BxPC-3 tumours, the “T/C (tumour growth delay)” value is listed as 65%. In data set [3], this molecule came in with a body weight gain of 8.8%. Further, in data set [3] (mouse, in vivo), the “tolerability of higher doses” value is “not tolerated”.
For the molecule `CCc1c2c(nc3ccc(OC(=O)N4CCC(N5CCCCC5)CC4)cc13)-c1cc3c(c(=O)n1C2)COC(=O)[C@]3(O)CC` [irinotecan], in data set [2], the tolerability result is recorded as “well tolerated” and the body weight gain turned out to be 5.9%. For the same molecule, the “T/C (tumor growth delay)” value in the data set on HCT 116 tumors came to 25%.
